Several values for one entry are separate records, joined by “and”; a condition that tells them apart may be missing. Identical values can stand only once.
What was measured:
[1] = test system: Propionibacterium acnes (C. acnes) phylotype IA1 ATCC 6919; assay: MIC evaluation, optical density and percentage of inhibition; format: cell-based
From the text: (§1) The minimum inhibitory concentration of the following active ingredients has been assessed: • Mangifera indica extract (in propanediol/water 75/25); • Vehicule (propanediol/water 75/25, expressed as Activolo3-75%); • “Pool Mangiferin” which is the pure molecule mangiferin at the same concentration in the Mangifera indica extract in propanediol/water 75/25. • “Pool Mangifera” with is the mix of the 4 molecules (mangiferin, maclurin-C-glucoside, irifluophenone-C-glucoside, gallotanin) at the same concentration in the Mangifera indica extract in propane-diol/water 75/25. […] After two days, the bacterial concentration was adjusted in reinforced clostridial broth to obtain a solution at 1.106 CFU/ml (5.104 CFU/well). […] Concentrations are expressed in % (m/v). […] The diluted bacterial suspension was added to columns 2 to 12. RCB medium was added to column 1 as negative control. Optical density was determined, which correlates to the bacterial growth.

[2] = test system: C. granulosum (ATCC 25564); assay: as above; format: cell-based, Cutibacterium granulosum
From the text: as §1

[3] = 0.39 10^−2 % (m/v), plate col. 12
[4] = 0.78 10^−2 % (m/v), plate col. 11
[5] = 1.56 10^−2 % (m/v), plate col. 10
[6] = 3.1310^−2 % (m/v), plate col. 9
[7] = 6.25 10^−2 % (m/v), plate col. 8
[8] = 12.5 10^−2 % (m/v), plate col. 7
[9] = 25.0 10^−2 % (m/v), plate col. 6

In the case of `O=c1c2cc(O)c(O)cc2oc2cc(O)c([C@@H]3O[C@H](CO)[C@@H](O)[C@H](O)[C@H]3O)c(O)c12` [pool mangiferin], the “Optical density, C. acnes” value [1, 3] is reported as 0.238 and 0.246, the “Percentage of inhibition, C. acnes” value [1, 3] is reported as 2.0% and 0% and the “Optical density, C. acnes” value ([1]; 0.5% (m/v), plate col. 5) is reported as 0.242 and 0.245. For the same molecule, the “Percentage of inhibition, C. acnes” value ([1]; 0.5% (m/v), plate col. 5) was 0%, the “Optical density, C. acnes” value [1, 4] was 0.244 and 0.245 and the “Percentage of inhibition, C. acnes” value [1, 4] was 0%. The “Optical density, C. acnes” value ([1]; 1% (m/v), plate col. 4) was 0.241, the “Percentage of inhibition, C. acnes” value ([1]; 1% (m/v), plate col. 4) was 0% and the “Optical density, C. acnes” value [1, 5] was 0.243 and 0.242. For the same molecule, the “Percentage of inhibition, C. acnes” value [1, 5] was 0%, the “antibacterial effect against P. acnes (in words)” value ([1]; 2%) was “no antibacterial effect” and the “Optical density, C. acnes” value ([1]; 2% (m/v), plate col. 3) was 0.236 and 0.234. For the same molecule, the “Percentage of inhibition, C. acnes” value ([1]; 2% (m/v), plate col. 3) was 3.0% and 4.1%, the “Optical density, C. acnes” value [1, 6] was 0.244 and the “Percentage of inhibition, C. acnes” value [1, 6] was 0%. The “Optical density, C. acnes” value [1, 7] was 0.242 and 0.245, the “Percentage of inhibition, C. acnes” value [1, 7] was 0% and the “Optical density, C. acnes” value [1, 8] was 0.245 and 0.244. For the same molecule, the “Percentage of inhibition, C. acnes” value [1, 8] was 0%, the “Optical density, C. acnes” value [1, 9] was 0.245 and 0.243 and the “Percentage of inhibition, C. acnes” value [1, 9] was 0%. The “Optical density, C. granulosum” value [2, 3] was 0.546 and 0.539, the “Percentage of inhibition, C. granulosum” value [2, 3] was 0.5% and 1.9% and the “Optical density, C. granulosum” value ([2]; 0.5% (m/v), plate col. 5) was 0.449 and 0.457. For the same molecule, the “Percentage of inhibition, C. granulosum” value ([2]; 0.5% (m/v), plate col. 5) was 19.9% and 18.3%, the “Optical density, C. granulosum” value [2, 4] was 0.561 and the “Percentage of inhibition, C. granulosum” value [2, 4] was 0%. The “Optical density, C. granulosum” value ([2]; 1% (m/v), plate col. 4) was 0.417 and 0.419, the “Percentage of inhibition, C. granulosum” value ([2]; 1% (m/v), plate col. 4) was 26.3% and 25.9% and the “Optical density, C. granulosum” value [2, 5] was 0.573 and 0.570. For the same molecule, the “Percentage of inhibition, C. granulosum” value [2, 5] was 0%, the “Optical density, C. granulosum” value ([2]; 2% (m/v), plate col. 3) was 0.391 and 0.398 and the “Percentage of inhibition, C. granulosum” value ([2]; 2% (m/v), plate col. 3) was 31.5% and 30.1%. For the same molecule, the “Optical density, C. granulosum” value [2, 6] was 0.592 and 0.558, the “Percentage of inhibition, C. granulosum” value [2, 6] was 0% and the “Optical density, C. granulosum” value [2, 7] was 0.545. The “Percentage of inhibition, C. granulosum” value [2, 7] was 0.7%, the “Optical density, C. granulosum” value [2, 8] was 0.505 and 0.520 and the “Percentage of inhibition, C. granulosum” value [2, 8] was 8.7% and 5.7%. The “Optical density, C. granulosum” value [2, 9] was 0.479 and 0.478, the “Percentage of inhibition, C. granulosum” value [2, 9] was 13.9% and 14.1% and the “antibacterial effect against C. granulosum (in words)” value ([2]; at 2%) was “slight antibacterial effect”.

Reference: patent US20250352458A1, “IMPROVEMENTS IN OR RELATING TO EXTRACTS” (Givaudan SA, priority 2020, published 2025)
